In patent US20070265223A1, “COMPOSITIONS AND METHODS OF ENHANCING SURVIVABILITY AND REDUCING INJURY OF CELLS, TISSUES, ORGANS, AND ORGANISMS UNDER HYPOXIC OR ISCHEMIC CONDITIONS” (IKARIA, INC., priority 2006, published 2007):
Read-outs that look alike come from different tables or passages of the source.

Legend:
[1] = system: mice subjected to lethal hypoxia; test: Protection of mice from lethal hypoxia using 5′-AMP; assay type: in vivo, mouse (C57BI/6); conditions: for survival of exposure to hypoxia: 4% oxygen for 60 min; for time to full recovery from lowest temperature: after return to ambient air
Procedure: The ability of 5′-AMP to protect mice from lethal hypoxia was determined by comparing the effects of hypoxia on mice treated with 5′-AMP to the effects of hypoxia on untreated mice. Male C57BI/6 mice, 5-6 weeks old, with implanted jugular vein catheter (Taconic) were implanted dorsally with a subcutaneous RFID temperature sensor (IPTT-300, Bio Medic Data Systems, Inc.) and allowed to recover for at least 24 hours. Adenosine-5′-monophosphate (AMP sodium salt, Sigma) was dissolved in water, the osmolarity was adjusted with sodium chloride to 300 mOsm, the pH was adjusted with NaOH to 6.3, and the solution was filtered through a 0.2 um filter. The final AMP concentration was 40 mM. Mice were placed into a tall glass-bottom jar with opaque walls and infused via the jugular vein at a rate of 0.8 ul/min for 59.5 min followed by 1.6 ul/min for 12.8 min (total AMP dose=145 umol/kg) with a syringe pump (Harvard Apparatus), until their subcutaneous temperature had decreased to about 33° C. The infusion was stopped, and the mice were exposed for 60 min to an atmosphere of 4% oxygen constructed by mixing air and nitrogen using mass flow controllers (Sierra Instruments). During the infusion and exposure to hypoxia, the animals' subcutaneous temperature was read every 3-5 min and their vital signs were monitored. At the end if the hypoxic period, the animals were removed to ambient air. Temperature measurements were continued until the animals' temperature had returned to the normal range (FIGS. 1A and 1B). A control mouse was exposed to hypoxia, and its time of death was recorded.
The same procedure described above was repeated under conditions wherein the mouse treated with 5′AMP received a constant infusion of 40 mM AMP at 1.6 ul/min for 26.5 min (total AMP dose of 69 umol/kg) until its subcutaneous temperature had reached 33 C. In this case, the AMP-infused mouse (MJVC83) survived exposure to hypoxia for 60 min and recovered fully from the lowest temperature of 24° C. within 1 hour. The control mouse (MJVC84) died after 8.5 min of hypoxia with a final temperature of 32.7° C. (FIGS. 2A and 2B).

[2] = system: rats subjected to lethal hypoxia; test: Protection of rats from lethal hypoxia using 5′-AMP; assay type: in vivo, rat (Sprague Dawley); conditions: rat RJVC35; 40 mM 5′AMP bolus 258 ul then 31.7 ul/min for 66.4 min, total 270 uM/kg; saline control 8.6 min
[3] = treatment of animals; Zhang et al., Nature 2006; cited from earlier work
[4] = system: mice subjected to lethal hypoxia; test: Protection of mice from lethal hypoxia using adenosine; assay type: in vivo, mouse (C57BI/6); conditions: two mice
Procedure: The ability of adenosine to protect mice from lethal hypoxia was determined by comparing the effects of hypoxia on mice treated with adenosine to the effects of hypoxia on untreated mice. Male C57BI/6 mice, 5-8 weeks old, with implanted jugular vein catheter (Taconic) were implanted dorsally with a subcutaneous RFID temperature sensor (PTT-300, Bio Medic Data Systems, Inc.) and allowed to recover for at least 24 hours after implantation. Mice were injected with adenosine (19 mM, 3.2 μl/min total dose approximately 27 mg/kg) and temperature was monitored via the temperature sensor until subcutaneous body temperature had decreased to about 33° C. The infusion was stopped, and these mice, as well as control mice injected with sodium chloride) were exposed for 60 min to an atmosphere of 4% oxygen constructed by mixing air and nitrogen using mass flow controllers (Sierra Instruments). During the infusion and exposure to hypoxia, the animals' subcutaneous temperature was monitored every 3-5 min and their vital signs were monitored. In parallel, a control mouse was injected with vehicle (sodium chloride; NaCI; 137 mM, 3.2 μl/min, total dose of NaCl administered was approximately 41 mg/kg) and put into a hypoxic atmosphere (4% O2) at the same time as the mouse injected with adenosine, and its behavior and body temperature monitored. Following 60 min in hypoxic conditions, the mice (MJVC104 and MJVC 108) treated with adenosine were transferred into room air, and recovery of the mice was recorded by observing behavior and monitoring body temperature. […] The control mice (MJVC105 and MJVC107) died after approximately six minutes in the hypoxic atmosphere (4% O2; FIGS. 4B and 5B).

[5] = cited from earlier work
[6] = adenosine approximately 27 mg/kg, after 60 min 4% O2

Nc1ncnc2c1ncn2[C@@H]1O[C@H](COP(=O)(O)O)[C@@H](O)[C@H]1O [5′-AMP, Adenosine-5′-monophosphate]
survival of exposure to hypoxia ([1]; mouse MJVC80, 40 mM AMP jugular vein infusion 0.8 ul/min 59.5 min then 1.6 ul/min 12.8 min, total 145 umol/kg): survived
time to full recovery from lowest temperature ([1]; mouse MJVC80, total AMP dose 145 umol/kg): ≤ 1 h
survival of exposure to hypoxia ([1]; mouse MJVC83, constant infusion 40 mM AMP 1.6 ul/min 26.5 min, total 69 umol/kg): survived
time to full recovery from lowest temperature ([1]; mouse MJVC83, total AMP dose 69 umol/kg): ≤ 1 h
time of survival in 3.5% oxygen [2]: 38.2 min
induction of torpor (depressed body temperature, mClps expression) [3]: induced torpor

Nc1ncnc2c1ncn2[C@@H]1O[C@H](CO)[C@@H](O)[C@H]1O [adenosine]
survival of hypoxic atmosphere ([4]; adenosine 19 mM, 3.2 μl/min, total approximately 27 mg/kg, 4% O2 for 60 minutes): survived
behavioral abnormalities the following day [4, 6]: No behavioral abnormalities
recovery after return to room air [4, 6]: recovered completely

[C-]#[O+] [carbon monoxide]
symptoms on exposure ([5]; 50 ppm): no symptoms
symptoms on exposure ([5]; 200 ppm, within two-three hours): slight headache
symptoms on exposure ([5]; 400 ppm, within one to two hours): frontal headache
symptoms on exposure ([5]; 800 ppm, within 45 minutes): dizziness, nausea, and/or convulsions
lethality on exposure ([5]; around 1000 ppm, exposure for more than around 1-2 minutes, an organism): expire
